Results published in patent publication US7320679B2, “Therapeutic use of growth factor, and delivery device, especially for the treatment of intimal hyperplasia” (Ark Therapeutics, Ltd., priority 1996, dated 2008).
“Also recorded” adds a separate entry of the source.

Key:
[1] = tested on: 205 kD protein corresponding to VEGF receptor; test: Anti-phosphotyrosine immunoprecipitation/immunoblot in HUVEC; type: cell-based, human; conditions: 100 μM L-NAME 1 h pretreatment; 10 ng/ml VEGF 10 min
Protocol: In some experiments, cells were pretreated for 1 h with 100 μM L-NAME and subsequently treated either with or without. […] The medium was removed and cells were rapidly lysed at 4° C. by addition of 10 mM Tris/HCl (pH 7.6), 5 mM EDTA, 50 mM NaCl, 30 mM sodium pyrophosphate, 50 mM NaF, 0.1 mM Na3VO4, 1 mM PMSF and 1% Triton X-100 (lysis buffer). Lysates were clarified by centrifugation at 15000×g for 10 min, and immunoprecipitations were performed by incubating clarified lysates with PY20 anti-phosphotyrosine mAb for 2 h at […] Immunoprecipitates were collected by incubating lysates for a further 1 hour with protein A-agarose. Immunoprecipitates were washed three times with lysis buffer and proteins were then extracted with 2×SDS-PAGE sample buffer. After SDS-PAGE, immunoprecipitated proteins were transferred to membranes and then immunoblotted with PY20 mAb.

NO production in HUVEC = test: Nitrite (NO) production in HUVEC, capillary detection method; type: cell-based, human
Protocol: Nitrite production was measured using capillary detection method (Leone et al, in Methods in Nitric Oxide Research, Feelisch and Stanler, eds. John Wiley & Sons, New York (1996) 499-508).

[2] = tested on: carotid arteries (intimal thickening); test: Collar-induced intimal thickening in rabbit carotid arteries after adventitial plasmid/liposome gene transfer; type: in vivo, New Zealand White rabbits; conditions: L-NAME 70 mg/kg/d in drinking water; 7 days after gene transfer
Text: The model preserved EC integrity and permitted direct extravascular gene transfer without any intravascular manipulation.
Gene Transfer: Intimal thickening was induced in the carotid arteries of thirty-two New Zealand White rabbits by inserting an inert silicone collar around the arteries under a general anaesthesia (Booth et al, Atherosclerosis (1989) 76:257-268). […] No intravascular manipulations were involved in any steps of the studies. […] Plasmids used for the studies were isolated from E. coli cultures (DH5α) using Qiagen Mega columns and purified using three phenol/chloroform extractions and one ethanol precipitation (Ausubel et al, eds. Current Protocols in Molecular Biology. New York, N.Y.: Greene Publishing Associates and John Wiley & Sons (1991) 4.2.3-4.2.4) were adjusted to 1 μg/μl and analysed to be free of any microbiological or endotoxin contamination (Limulus assay, detection limit 0.2 ng). […] Differences in the intima/media thickness ratios between the groups were analysed by ANOVA, followed by modified t-test (*p<0.05). […]
Gene transfer was carried out as described in Example 1.1. […] Animals were sacrificed 7 days after gene transfer and analysed for the intima/media thickness ratio and histology as described above (Ylä-Herttuala et al, Arteriosclerosis (1986) 6: 230-236; Ylä-Herttuala et al (1990) supra). […]

## COC(=O)[C@@H](N)CCCNC(=N)N[N+](=O)[O-] [L-NAME]
[1]
  effect of L-NAME on VEGF-induced phosphorylation: abolishes the response to VEGF; also recorded: completely abolished
NO production in HUVEC; 100 μM L-NAME
  effect of L-NAME on VEGF-induced NO production: completely abolished
NO production in HUVEC; L-NAME 100 μM pretreatment 1 hour, then 25 ng/ml VEGF 10 minutes
  nitrite production level after L-NAME: ~17 µM
[2]
  effect of L-NAME on the difference in intimal thickening between VEGF- and lacZ-transfected arteries: abolished
